In patent US9492468B2, “Methods and compositions for treatment of acute heart failure” (PERICOR THERAPEUTICS, INC., priority 2008, dated 2016):
Where a name gives a salt, the structure may show the parent alone.

Test system: dogs with advanced heart failure
Experiment: Dose escalation / bolus plus infusion study, hemodynamic and ventriculographic measures
Format: in vivo, dog
Settings: for Effect on EF (LVEF) / Effect on ESV: dose dependent; for Hemodynamic and ventriculographic benefits after discontinuation: one hour after discontinuation of infusion
Description: Studies were performed in purpose-bred, healthy and conditioned mongrel dogs weighing between 20 and 30 kg. The study was approved by Henry Ford Health System Institutional Animal Care and Use Committee and conformed to the National Institute of Health “Guide and Care for Use of Laboratory Animals” and the “Position of the American Heart Association on Research Animal Use” (Position of the American Heart Association on Research Animal Use. Circulation 1985; 71; 49A-50A).
Chronic LV dysfunction and failure was produced by multiple sequential intracoronary embolizations with polystyrene Latex; coronary microembolizations were performed during cardiac catheterization under general anesthesia and sterile conditions (Sabbah H N, et al. Am J Physiol (1991) 260:H1379-84; Sabbah H N, et al. Circulation (1994) 89:2852-9; Sabbah H N, et al. Am J Cardiol 99:41 A-46A, (2007)). Anesthesia was induced using a combination of intravenous injections of oxymorphone hydrochloride (0.22 mg/kg) and diazepam (0.2-0.6 mg/kg). Plane of anesthesia was maintained throughout the study using 1% to 2% isoflurane. Left and right heart catheterizations were performed via a femoral arteriotomy and venotomy. Coronary microembolizations were discontinued when LV ejection fraction, determined angiographically, was about 25%. A period of 2 weeks was allowed after the last microembolization to ensure that infarctions produced by the last microembolizations have completely healed and heart failure was established before the study is undertaken.
Eight heart failure dogs described in Example 1 were used. Seven of 8 dogs underwent two studies, one with active drug GP-531 tartrate and one with vehicle (placebo) and 1 of 8 dogs underwent only one active drug GP-531 study. The order of active drug and placebo was randomized and performed about one week apart. In 6 of 8 dogs, after baseline hemodynamic, and ventriculographic measurements, vehicle was administered as a continuous intravenous infusion for one hour. At the end of one hour, the active drug GP-531 tartrate was administered in 3 escalating dose of continuous intravenous infusion with each dose maintained for one hour. At the end of the last drug dose, infusion was stopped and a washout period of one hour was instituted. The same infusion rates and times between doses were used when vehicle studies were performed. At the end of each hour, hemodynamic and angiographic measurements were made. Venous blood samples were obtained at baseline and at one hour after each dose. Blood samples (at least 10 mL) were centrifuged at 3000 rpm for 10 minutes and plasma withdrawn and placed in cryostorage tubes and stored upright at −20° C. for future use. In 2 of 8 dogs, active drug was administered as bolus followed by a constant infusion for 3 hours as noted below.
Active drug was used in dog groups as follows:
1. In 3 of 8 dogs, escalating doses of 30, 100 and 300 μg/kg/min GP-531 tartrate were used (Group I)
2. In another 3 of 8 dogs, escalating doses of 3, 10 and 30 μg/kg/min GP-531 tartrate were used (Group II).
3. In 1 of 8 dogs, active drug was administered as 700 μg/kg GP-531 tartrate bolus followed by a constant infusion of 10 μg/kg/min GP-531 tartrate for 3 hours.
4. In another 1 of 8 dogs, two active drug studies were performed. In one study, active drug was administered as 70 μg/kg bolus followed by a constant infusion of 1.0 μg/kg/min for 4 hours and in the second study, active drug was administered as 210 μg/kg bolus followed by a constant infusion of 3.0 μg/kg/min for 4 hours.
Study Primary End-Points were: (1) change in LV ejection fraction determined from ventriculography and (2) change in LV end-systolic and end-diastolic volume determined from ventriculography.
All hemodynamic measurements were made during left and right heart catheterizations in anesthetized dogs at each specified study time point. […]

[1] = 1 HF dog, 210 μg/kg bolus then 3.0 μg/kg/min for 4 h
[2] = 1 HF dog, 210 μg/kg bolus then 3.0 μg/kg/min, end of 4 h
[3] = 1 HF dog, 700 μg/kg bolus then constant infusion 10 m/kg/min (so in the source) for 3 h
[4] = 1 HF dog, 700 μg/kg bolus then constant infusion 10 m/kg/min (so in the source), end of 3 h
[5] = Group I HF dogs n=3, 1 h washout after 30/100/300 μg/kg/min
[6] = Group I HF dogs n=3, escalating 30, 100, 300 μg/kg/min, vs baseline
[7] = Group I HF dogs n=3, escalating 30, 100, 300 μg/kg/min, vs baseline, listed as GP-531 tartrate salt
[8] = Group II HF dogs n=3, 1 h washout after 3/10/30 μg/kg/min
[9] = Group II HF dogs n=3, escalating 3, 10, 30 μg/kg/min, not statistically significant vs baseline
[10] = Group II HF dogs n=3, escalating 3, 10, 30 μg/kg/min, vs baseline
[11] = Group I HF dogs n=3, iv 30 μg/kg/min, 1 h
[12] = Group I HF dogs n=3, iv 100 μg/kg/min, 1 h
[13] = Group I HF dogs n=3, iv 300 μg/kg/min, 1 h
[14] = Group II HF dogs n=3, iv 3 μg/kg/min, 1 h
[15] = Group II HF dogs n=3, iv 10 μg/kg/min, 1 h
[16] = Group II HF dogs n=3, iv 30 μg/kg/min, 1 h

With `NC(=O)c1ncn(C2OC(CNCc3ccccc3)C(O)C2O)c1N` (stereo not drawn) [GP-531 tartrate] the “Effect on CO” value [1] was “minimal or modest changes”, the “Effect on HR” value [1] was “modest reduction” and the “Effect on LVEDP” value [1] was “modest reduction”. For the same molecule, the “Effect on SV” value [1] was “minimal or modest changes”, the “Effect on SVR” value [1] was “minimal or modest changes” and the “Effect on mAoP” value [1] was “modest reduction”. For the same molecule, the “Effect on EDV” value [2] was “essentially no change”, the “Increase in EF” value [2] was 44% and the “Reduction in ESV” value [2] was ~20%. The “Effect on CO” value [3] was “minimal or modest changes”, the “Effect on HR” value [3] was “modest reduction” and the “Effect on LVEDP” value [3] was “substantial drop”. For the same molecule, the “Effect on SV” value [3] was “minimal or modest changes”, the “Effect on SVR” value [3] was “minimal or modest changes” and the “Effect on mAoP” value [3] was “modest reduction”. For the same molecule, the “Increase in EF” value [4] was 30%, the “Reduction in EDV” value [4] was ~10% and the “Reduction in ESV” value [4] was 20%. For the same molecule, the “Cardiac output (CO)” value [5] was 1.72 ± 0.17 L/min, the “Heart rate (HR)” value [5] was 85 ± 7 beats/min and the “LV end-diastolic pressure (LVEDP)” value [5] was 13 ± 1 mmHg. The “LV end-diastolic volume (EDV)” value [5] was 70 ± 5 mL, the “LV end-systolic volume (ESV)” value [5] was 49 ± 4 mL and the “Mean aortic pressure (mAoP)” value [5] was 73 ± 6 mmHg. The “Stroke volume (SV)” value [5] was 20 ± 2 mL, the “Systemic vascular resistance (SVR)” value [5] was 3445 ± 310 dynes-sec-cm^−5 and the “Effect on CO” value [6] was “significant increase”. For the same molecule, the “Effect on EDV” value [6] was “modest and not statistically significant effect on reducing”, the “Effect on HR” value [6] was “no effect” and the “Effect on LVEDP” value [6] was “significantly decreased”. For the same molecule, the “Effect on SV” value [6] was “significant increase”, the “Effect on SVR” value [6] was “decrease” and the “Effect on mAoP” value [6] was “no effect”. The “Effect on EF (LVEF)” value [6] was “increased”, the “Effect on ESV” value [6] was “significantly decreased” and the “Effect on EF (LVEF)” value [7] was “increase”. The “Effect on ESV” value [7] was “significant decrease”, the “Hemodynamic and ventriculographic benefits after discontinuation” value (Group I HF dogs) was “attenuated but in many instances remained significantly better than baseline values” and the “Cardiac output (CO)” value [8] was 1.50 ± 0.02 L/min. For the same molecule, the “Heart rate (HR)” value [8] was 80 ± 5 beats/min, the “LV end-diastolic pressure (LVEDP)” value [8] was 12 ± 1 mmHg and the “LV end-diastolic volume (EDV)” value [8] was 59 ± 4 mL. The “LV end-systolic volume (ESV)” value [8] was 40 ± 2 mL, the “Mean aortic pressure (mAoP)” value [8] was 66 ± 3 mmHg and the “Stroke volume (SV)” value [8] was 19 ± 2 mL. For the same molecule, the “Systemic vascular resistance (SVR)” value [8] was 3511 ± 176 dynes-sec-cm^−5, the “Effect on CO” value [9] was “modestly increased” and the “Effect on SV” value [9] was “modestly increased”. The “Effect on SVR” value [9] was “modestly decreased”, the “Effect on EDV” value [10] was “no effects” and the “Effect on HR” value [10] was “no effect”. The “Effect on LVEDP” value [10] was “significantly decreased”, the “Effect on mAoP” value [10] was “no effect” and the “Effect on EF (LVEF)” value [10] was “increased”. The “Effect on ESV” value [10] was “significantly decreased”, the “Effect on EF (LVEF)” value (Group II HF dogs n=3, escalating 3, 10, 30 μg/kg/min, vs baseline, listed as GP-531 tartrate salt) was “increase” and the “Hemodynamic and ventriculographic benefits after discontinuation” value (Group II HF dogs) was “attenuated but in many instances remained significantly better than baseline values”. The “Adverse positive chronotropic effects” value (HF dogs, iv 3 to 300 μg/kg/min) was “not associated with any adverse positive chronotropic effects”, the LV systolic function (HF dogs, iv 3 to 300 μg/kg/min over at least one hour) was “can improve LV systolic function” and the “Effect on LVEF (FIG. 3)” value (bolus injection 700 μg/kg followed by 3 hour constant infusion 10 μg/kg/min) was “increase”.
In the case of `NC(=O)c1ncn(C2OC(CNCc3ccccc3)C(O)C2O)c1N` [GP-531, 5-amino-1-β-D-(5-benzylamino-5-deoxy-1-β-D-ribofuranosyl)imidazole-4 carboxamide], the “Effect on hemodynamic or ventriculographic measures of LV function” value (1 HF dog, 70 μg/kg bolus then 1.0 μg/kg/min for 4 h) is reported as “no effects”, the “Cardiac output (CO)” value [11] is reported as 1.90 ± 0.19 L/min and the “Heart rate (HR)” value [11] is reported as 88 ± 9 beats/min. For the same molecule, the “LV end-diastolic pressure (LVEDP)” value [11] was 11 ± 1 mmHg, the “LV end-diastolic volume (EDV)” value [11] was 69 ± 6 mL and the “LV end-systolic volume (ESV)” value [11] was 47 ± 4 mL. The “Mean aortic pressure (mAoP)” value [11] was 70 ± 2 mmHg, the “Stroke volume (SV)” value [11] was 22 ± 2 mL and the “Systemic vascular resistance (SVR)” value [11] was 2995 ± 213 dynes-sec-cm^−5. The “Cardiac output (CO)” value [12] was 2.06 ± 0.28 L/min, the “Heart rate (HR)” value [12] was 90 ± 9 beats/min and the “LV end-diastolic pressure (LVEDP)” value [12] was 10 ± 1 mmHg. The “LV end-diastolic volume (EDV)” value [12] was 68 ± 4 mL, the “LV end-systolic volume (ESV)” value [12] was 45 ± 4 mL and the “Mean aortic pressure (mAoP)” value [12] was 69 ± 2 mmHg. For the same molecule, the “Stroke volume (SV)” value [12] was 23 ± 1 mL, the “Systemic vascular resistance (SVR)” value [12] was 2792 ± 360 dynes-sec-cm^−5 and the “Cardiac output (CO)” value [13] was 2.06 ± 0.22 L/min. The “Heart rate (HR)” value [13] was 88 ± 6 beats/min, the “LV end-diastolic pressure (LVEDP)” value [13] was 11 ± 1 mmHg and the “LV end-diastolic volume (EDV)” value [13] was 68 ± 4 mL. For the same molecule, the “LV end-systolic volume (ESV)” value [13] was 44 ± 4 mL, the “Mean aortic pressure (mAoP)” value [13] was 73 ± 3 mmHg and the “Stroke volume (SV)” value [13] was 23 ± 1 mL. The “Systemic vascular resistance (SVR)” value [13] was 2886 ± 67 dynes-sec-cm^−5, the “Cardiac output (CO)” value [14] was 1.47 ± 0.09 L/min and the “Heart rate (HR)” value [14] was 80 ± 2 beats/min. The “LV end-diastolic pressure (LVEDP)” value [14] was 12 ± 1 mmHg, the “LV end-diastolic volume (EDV)” value [14] was 62 ± 2 mL and the “LV end-systolic volume (ESV)” value [14] was 43 ± 2 mL. The “Mean aortic pressure (mAoP)” value [14] was 70 ± 3 mmHg, the “Stroke volume (SV)” value [14] was 18 ± 1 mL and the “Systemic vascular resistance (SVR)” value [14] was 3870 ± 366 dynes-sec-cm^−5. The “Cardiac output (CO)” value [15] was 1.45 ± 0.06 L/min, the “Heart rate (HR)” value [15] was 82 ± 6 beats/min and the “LV end-diastolic pressure (LVEDP)” value [15] was 12 ± 1 mmHg. The “LV end-diastolic volume (EDV)” value [15] was 58 ± 4 mL, the “LV end-systolic volume (ESV)” value [15] was 39 ± 3 mL and the “Mean aortic pressure (mAoP)” value [15] was 65 ± 2 mmHg. For the same molecule, the “Stroke volume (SV)” value [15] was 19 ± 1 mL, the “Systemic vascular resistance (SVR)” value [15] was 3379 ± 26 dynes-sec-cm^−5 and the “Cardiac output (CO)” value [16] was 1.64 ± 0.06 L/min. The “Heart rate (HR)” value [16] was 80 ± 3 beats/min, the “LV end-diastolic pressure (LVEDP)” value [16] was 12 ± 2 mmHg and the “LV end-diastolic volume (EDV)” value [16] was 57 ± 4 mL. The “LV end-systolic volume (ESV)” value [16] was 36 ± 3 mL, the “Mean aortic pressure (mAoP)” value [16] was 69 ± 3 mmHg and the “Stroke volume (SV)” value [16] was 21 ± 2 mL. The “Systemic vascular resistance (SVR)” value [16] was 3388 ± 235 dynes-sec-cm^−5, the De-novo ventricular arrhythmias (HF dogs, iv 3 to 300 μg/kg/min) was “without triggering de-novo ventricular arrhythmias” and the Hypotension (HF dogs, iv 3 to 300 μg/kg/min) was “without inducing hypotension”.
